Test results from article PMC5223195, “Novel long-chain compounds with both immunomodulatory and MenA inhibitory activities against Staphylococcus aureus and its biofilm” (Scientific Reports, 2017).
Values after ≈ are worked out from the molar mass of the structure shown. Read-outs that look alike come from different tables or passages of the source.

Experiments:
[1] = system: MRSA USA100; assay: MIC against MRSA USA100; type: cell-based, Staphylococcus aureus; details: Staphylococcus aureus, read-out: MIC, Staphylococcus aureus isolate USA100
Protocol: (§1) 96-well plates were seeded with 5 × 10^5 CFU/mL in a volume of 100 μL of tryptic soy broth (TSB) per well for Staphylococcus aureus assays. Compounds were dissolved in DMSO and serially diluted as 1:2 dilutions to give the final concentration ranging from 0.25 to 128 μg/mL per well. […] Plates were incubated at 37 °C for 18–20 hours and MIC was determined by reading OD625. For M.avium and M.abscessus, 7H9 broth media was used for determination of MICs. The final concentration was 5 × 10^5 CFU/mL in each well. The plate was incubated at 37 °C for 7–8 days and MICs were determined using a Tecan microplate reader (OD625) and resazurin reduction assay.

[2] = system: MRSA USA200; assay: MIC against MRSA USA200; type: cell-based, Staphylococcus aureus; details: for MIC: Staphylococcus aureus, read-out: MIC, Staphylococcus aureus isolate USA200
Protocol: as §1

[3] = system: MRSA USA300; assay: MIC against MRSA USA300; type: cell-based, Staphylococcus aureus; details: Staphylococcus aureus, read-out: MIC, Staphylococcus aureus isolate USA300
Protocol: as §1

[4] = system: MRSA USA400; assay: MIC against MRSA USA400; type: cell-based, Staphylococcus aureus; details: Staphylococcus aureus, read-out: MIC, Staphylococcus aureus isolate USA400
Protocol: as §1

[5] = system: MRSA USA700; assay: MIC against MRSA USA700; type: cell-based, Staphylococcus aureus; details: for MIC: Staphylococcus aureus, read-out: MIC, Staphylococcus aureus isolate USA700
Protocol: as §1

[6] = system: Enterococcus faecalis; assay: MIC against Enterococcus faecalis; type: cell-based; details: read-out: MIC, EF
[7] = system: MRSA USA800; assay: MIC against MRSA USA800; type: cell-based, Staphylococcus aureus; details: Staphylococcus aureus; TSB, 37 °C, 18–20 hours; read-out: MIC, Staphylococcus aureus isolate USA800
Protocol: as §1

[8] = system: Methicillin susceptible Staphylococcus aureus; assay: MIC against MSSA; type: cell-based; details: MSSA
Protocol: as §1

[9] = system: MRSA USA500; assay: MIC against MRSA USA500; type: cell-based, Staphylococcus aureus; details: Staphylococcus aureus; TSB, 37 °C, 18–20 hours; read-out: MIC, Staphylococcus aureus isolate USA500
Protocol: as §1

[10] = system: Pseudomonas aeruginosa; assay: MIC against Pseudomonas aeruginosa; type: cell-based; details: read-out: MIC, PA
[11] = system: MRSA (USA700) biofilms; assay: S. aureus biofilm assay; type: cell-based, Staphylococcus aureus
Protocol: Biofilm assays were performed using a method previously described with modification. A 96 well plate was precoated with 20% human plasma (Sigma) in 0.05 M carbonate buffer, pH 9.6 at 4 °C for 24 h. MRSA was cultured overnight in TSB containing 3% NaCl and 0.5% glucose. The overnight culture was diluted with TSB/NaCl/Glucose media until OD600 reached 0.05. After carefully removing the liquid from the 96 well plate, 200 μL of MRSA dilution was added to each well in triplicate. The plate was incubated at 37 °C for 24 h and carefully washed with PBS twice. MH broth (200 μL) containing a compound was added to each well in triplicate and incubated at 37 °C for 24 h. After washing with PBS twice, the biofilm was scraped in 100 μL of PBS and serially diluted and plated on TSA to determine CFU.

[12] = system: MRSA (USA200); assay: Colony morphology / small colony variant formation on TSA; type: cell-based, Staphylococcus aureus; details: USA200 on TSA, 37 °C, up to 96 h (3a 4–16 μg/mL), 72 h (7c, rifampin)
Protocol: MRSA was streaked and then incubated on tryptic soy agar (TSA) containing 0, 2, 4, 8 or 16 μg/mL of inhibitor 3a or 4 μg/mL of 7C or 0.025 μg/mL of rifampin at 37 °C for 96 h. MK-4 (100 μg/mL) was supplemented in TSA containing 8 μg/mL of 3a for the rescue experiment.

Brc1ccc(CCNCCCCCCCCOc2ccc3cc(Br)ccc3c2)cc1 [5c]
MIC ([1]; TSB, 37 °C, 18–20 hours): 32 µg/mL (≈ 60 µM)
MIC ([2]; TSB, 37 °C, 18–20 hours): 8 µg/mL (≈ 15 µM)
MIC ([3]; TSB, 37 °C, 18–20 hours): 32 µg/mL (≈ 60 µM)
MIC ([4]; TSB, 37 °C, 18–20 hours): 16 µg/mL (≈ 30 µM)
MIC ([5]; TSB, 37 °C, 18–20 hours): 32 µg/mL (≈ 60 µM)
MIC [6]: 8 µg/mL (≈ 15 µM)

Brc1ccc2cc(OCCCCCCCCN3CCCCC3)ccc2c1 [5d]
MIC [1]: 8 µg/mL (≈ 19.1 µM)
MIC [4]: 4 µg/mL (≈ 9.56 µM)
MIC [5]: 16 µg/mL (≈ 38.2 µM)

C=CCN(C)CCCCCCCCOc1ccc2cc(Br)c(OCc3ccccc3)cc2c1 [6a]
MIC ([2]; TSB, 37 °C, 18–20 hours): 8 µg/mL (≈ 15.7 µM)
MIC ([4]; TSB, 37 °C, 18–20 hours): 8 µg/mL (≈ 15.7 µM)
MIC ([5]; TSB, 37 °C, 18–20 hours): 16 µg/mL (≈ 31.3 µM)
MIC [7]: 64 µg/mL (≈ 125 µM)
MIC [8]: 16 µg/mL (≈ 31.3 µM)
MIC [6]: 4 µg/mL (≈ 7.84 µM)

Fc1ccc(CCNCCCCCCCCOc2ccc3cc(Br)c(OCc4ccccc4)cc3c2)cc1 [6c]
MIC ([1]; TSB, 37 °C, 18–20 hours): > 128 µg/mL
MIC ([4]; TSB, 37 °C, 18–20 hours): > 128 µg/mL
MIC [9]: > 128 µg/mL
MIC ([5]; TSB, 37 °C, 18–20 hours): > 128 µg/mL
MIC [7]: > 128 µg/mL
MIC [8]: > 128 µg/mL

Clc1ccc(CCNCCCCCCCCOc2ccc3cc(Br)c(OCc4ccccc4)cc3c2)cc1 [6d]
MIC ([3]; TSB, 37 °C, 18–20 hours): > 128 µg/mL
MIC ([4]; TSB, 37 °C, 18–20 hours): > 128 µg/mL
MIC ([5]; TSB, 37 °C, 18–20 hours): 64 µg/mL (≈ 108 µM)
MIC [8]: 64 µg/mL (≈ 108 µM)
MIC [6]: 16 µg/mL (≈ 26.9 µM)

Brc1ccc(CCNCCCCCCCCOc2ccc3cc(Br)c(OCc4ccccc4)cc3c2)cc1 [6e]
MIC [2]: 128 µg/mL (≈ 200 µM)
MIC [3]: > 128 µg/mL
MIC [5]: 128 µg/mL (≈ 200 µM)

C=CCN(C)CCCOc1ccc2ccc(OCCCN(C)CC=C)cc2c1 [7a]
MIC, Staphylococcus aureus isolate USA200 ([2]; TSB, 37 °C, 18–20 hours): >128 µg/mL
MIC, Staphylococcus aureus isolate USA700 ([5]; TSB, 37 °C, 18–20 hours): 128 µg/mL (≈ 335 µM)

c1cc2ccc(OCCCN3CCCCC3)cc2cc1OCCCN1CCCCC1 [7b]
MIC [5]: > 128 µg/mL

Fc1ccc(N2CCN(CCCOc3ccc4ccc(OCCCN5CCN(c6ccc(F)cc6)CC5)cc4c3)CC2)cc1 [7d, 2,7-bis(3-(4-(4-fluorophenyl)piperazin-1-yl)propoxy)naphthalene]
MIC [5]: > 128 µg/mL

CC(=O)NC[C@H]1CN(c2ccc(N3CCOCC3)c(F)c2)C(=O)O1 [Linezolid, reference compound]
MIC ([1]; TSB, 37 °C, 18–20 hours): 0.5 µg/mL (≈ 1.48 µM)
MIC ([2]; TSB, 37 °C, 18–20 hours): 1 µg/mL (≈ 2.96 µM)
MIC ([3]; TSB, 37 °C, 18–20 hours): 1 µg/mL (≈ 2.96 µM)
MIC ([4]; TSB, 37 °C, 18–20 hours): 1 µg/mL (≈ 2.96 µM)
MIC [9]: 0.5 µg/mL (≈ 1.48 µM)
MIC ([5]; TSB, 37 °C, 18–20 hours): 1 µg/mL (≈ 2.96 µM)
MIC [7]: 0.5 µg/mL (≈ 1.48 µM)
MIC [8]: 1 µg/mL (≈ 2.96 µM)
MIC [6]: > 32 µg/mL
MIC [10]: 1 µg/mL (≈ 2.96 µM)

CN(C)c1ccc(O)c2c1C[C@H]1C[C@H]3[C@H](N(C)C)C(O)=C(C(N)=O)C(=O)[C@@]3(O)C(O)=C1C2=O [Minomycin, Minocycline, reference compound]
MIC ([4]; TSB, 37 °C, 18–20 hours): 0.5 µg/mL (≈ 1.09 µM)
MIC [9]: < 0.06 µg/mL
MIC, Staphylococcus aureus isolate USA700 ([5]; TSB, 37 °C, 18–20 hours): < 0.06 µg/mL
MIC [6]: 16 µg/mL (≈ 35 µM)
MRSA biofilm growth compared to the positive control ([11]; USA700 biofilm, 0.5 and 0.03 mg/mL, 24 h): significant decrease
fold reduction of MRSA biofilm compared to the positive control ([11]; USA 700 biofilm, 8300 × MIC): 10^6 fold

CO[C@H]1/C=C/O[C@@]2(C)Oc3c(C)c(O)c4c(O)c(c(/C=N/N5CCN(C)CC5)c(O)c4c3C2=O)NC(=O)/C(C)=C\C=C\[C@H](C)[C@H](O)[C@@H](C)[C@@H](O)[C@@H](C)[C@H](OC(C)=O)[C@@H]1C [rifampin, reference compound]
induction of small colony variants (SCV) [12]: showed growth of SCV
